Measured values published in the OligoGym collection.
Oligonucleotides are written 5' to 3', each unit as a sugar letter and its base; * is a phosphorothioate linkage, no mark a phosphodiester; rarer units and linkages stand in square brackets, end groups in braces. Plain capitals give the bases only. d = 2'-deoxy (DNA); r = 2'-OH (RNA)

Each substance was assayed against P2rx2 (rat) (assay: reporter assay of Huesken 2005). Details: siRNA.
Further: test concentration or dose not given here.

Substance | normalised inhibition (eCFP-eYFP dual reporter) [%]
sense rGrGrArGrArGrArArCrUrUrCrArCrArGrArArCdTdT / antisense rGrUrUrCrUrGrUrGrArArGrUrUrCrUrCrUrCrCdTdG | 61.7
sense rGrGrCrArGrGrGrArArArUrUrCrArGrUrCrUrCdTdT / antisense rGrArGrArCrUrGrArArUrUrUrCrCrCrUrGrCrCdTdG | 51.5
sense rGrGrGrArArArUrUrCrArGrUrCrUrCrArUrUrCdTdT / antisense rGrArArUrGrArGrArCrUrGrArArUrUrUrCrCrCdTdG | 72.6
sense rGrGrGrArUrUrCrGrCrArCrArGrGrGrCrArCrUdTdT / antisense rArGrUrGrCrCrCrUrGrUrGrCrGrArArUrCrCrCdAdT | 66
sense rGrGrUrGrCrGrGrArArUrCrGrGrCrGrCrCrUrGdTdT / antisense rCrArGrGrCrGrCrCrGrArUrUrCrCrGrCrArCrCdAdC | 69.3
sense rGrGrUrGrGrUrGrGrArCrArCrArCrUrUrGrGrCdTdT / antisense rGrCrCrArArGrUrGrUrGrUrCrCrArCrCrArCrCdTdG | 52.2
sense rGrUrGrUrCrArUrUrGrGrArGrUrCrArUrCrArUdTdT / antisense rArUrGrArUrGrArCrUrCrCrArArUrGrArCrArCdCdG | 59
sense rUrArCrCrUrCrArArGrCrArUrUrGrCrArCrArUdTdT / antisense rArUrGrUrGrCrArArUrGrCrUrUrGrArGrGrUrAdGdT | 72.3
sense rUrCrArArGrUrArGrArUrGrGrCrCrUrGrUrGrAdTdT / antisense rUrCrArCrArGrGrCrCrArUrCrUrArCrUrUrGrAdGdG | 67.1
sense rUrCrArGrCrCrArCrCrCrArGrCrCrCrUrCrCrAdTdT / antisense rUrGrGrArGrGrGrCrUrGrGrGrUrGrGrCrUrGrAdTdC | 51.2
sense rUrCrArUrCrArArGrArArCrArGrCrArUrCrCrAdTdT / antisense rUrGrGrArUrGrCrUrGrUrUrCrUrUrGrArUrGrAdGdG | 53.7
sense rUrCrArUrCrArArUrCrUrGrGrCrCrArCrUrGrCdTdT / antisense rGrCrArGrUrGrGrCrCrArGrArUrUrGrArUrGrAdTdG | 43.1
sense rUrCrCrCrArGrArCrCrUrUrGrGrGrArArCrArUdTdT / antisense rArUrGrUrUrCrCrCrArArGrGrUrCrUrGrGrGrAdAdG | 50.4
sense rUrCrGrArUrGrUrUrArUrCrGrUrGrCrArUrGrGdTdT / antisense rCrCrArUrGrCrArCrGrArUrArArCrArUrCrGrAdTdT | 57.4
sense rUrCrGrUrGrCrArGrArArArArGrCrUrArCrCrAdTdT / antisense rUrGrGrUrArGrCrUrUrUrUrCrUrGrCrArCrGrAdTdG | 74.2
sense rUrCrUrCrArUrCrCrUrGrCrUrUrUrArCrUrUrCdTdT / antisense rGrArArGrUrArArArGrCrArGrGrArUrGrArGrAdAdG | 61.3
sense rUrGrArCrCrCrUrUrGrCrCrCrUrUrGrUrCrUrUdTdT / antisense rArArGrArCrArArGrGrGrCrArArGrGrGrUrCrAdCdA | 53.9
sense rUrGrArGrArArGrGrCrArGrGrArGrArGrArArCdTdT / antisense rGrUrUrCrUrCrUrCrCrUrGrCrCrUrUrCrUrCrAdAdC | 32.3
sense rUrGrCrCrArArGrUrArUrUrArCrArArGrArUrAdTdT / antisense rUrArUrCrUrUrGrUrArArUrArCrUrUrGrGrCrAdAdA | 76.8
sense rUrGrCrCrCrUrUrGrUrCrUrUrGrGrGrCrCrArGdTdT / antisense rCrUrGrGrCrCrCrArArGrArCrArArGrGrGrCrAdAdG | 37
sense rUrGrGrCrCrArCrUrGrCrUrCrUrGrArCrCrUrCdTdT / antisense rGrArGrGrUrCrArGrArGrCrArGrUrGrGrCrCrAdGdA | 57
sense rUrGrGrCrUrGrUrCrCrArGrUrCrUrCrCrUrCrGdTdT / antisense rCrGrArGrGrArGrArCrUrGrGrArCrArGrCrCrAdGdT | 67.4
sense rUrGrUrCrUrGrArArUrCrArGrArGrUrGrCrArAdTdT / antisense rUrUrGrCrArCrUrCrUrGrArUrUrCrArGrArCrAdAdG | 80.9
sense rUrUrCrArCrArGrCrUrCrUrArCrCrUrGrCrCrAdTdT / antisense rUrGrGrCrArGrGrUrArGrArGrCrUrGrUrGrArAdCdC | 51.7
sense rUrUrGrCrArArGrCrCrArGrArArGrArGrUrGrAdTdT / antisense rUrCrArCrUrCrUrUrCrUrGrGrCrUrUrGrCrArAdTdG | 72.8
sense rUrUrGrCrCrArArGrUrArUrUrArCrArArGrArUdTdT / antisense rArUrCrUrUrGrUrArArUrArCrUrUrGrGrCrArAdAdC | 56.7
